Test results from patent US20210022305A1, “A HUMULUS PLANT VARIANT AND EXTRACTS THEREOF” (BOMI LLC, priority 2018, published 2021).

Tested on: VIC cells
Assay: VIC calcification reduction (Alizarin Red S nodule number and area)
Type: cell-based, porcine
Protocol: VIC Isolation and Culture. VICs were isolated from porcine aortic valve leaflets (Hormel, Austin, Minn.) by collagenase digestion and subsequently cultured in growth medium (15% FBS, 2 mM L-glutamine, 100 U/ml penicillin, and 100 µg/ml streptomycin in medium 199) at 37° C., 5% CO2 for two to four passages. VICs used in all experiments were seeded at a density of 50,000 cells/cm^2 onto 24-well or 96-well plates. During the experiments, the VICs were cultured in low-serum medium (1% FBS, 100 U/ml penicillin, 100 µg/ml streptomycin, 2 mM L-glutamine, in medium 199), and the medium was changed each day until the fifth day.
Culture Substrate Coatings. Tissue culture polystyrene (TCPS) plates (24-well or 96-well) were coated with type I collagen (Coll) (Inamed Biomaterials, Fremont, Calif.; […]), fibronectin (FN, 5 g/cm^2), fibrin (FB, […]), or left untreated (TCPS). For the FB coating, plates were first incubated overnight at 4° C. in fibrinogen (1 mg/mL), followed by three washes with 0.05% Tween 20 in phosphate-buffered saline (PBS) and 1 hour incubation with thrombin (0.6 mg/ml) at 37° C. (Gu et al., “Role of the MAPK/ERK Pathway in Valvular Interstitial Cell Calcification,” American Journal of Physiology—Heart and Circulatory Physiology 296(6):H1748-H1757 (2009), which is hereby incorporated by reference in its entirety). All coatings were prepared in 50 mM bicarbonate coating buffer, pH 8.5, and rinsed three times with PBS before cell seeding. The amounts of adsorbed proteins were measured on separate plates using the bicinchoninic acid protein assay (Pierce, Rockford, Ill.) to verify adsorption of protein coatings.
Quantification of Nodule Number and Size. After 5 days of culture in the presence or absence of U-0126 or PD-98059, VIC cultures were stained with Alizarin Red S (ARS) to facilitate quantification of calcified nodules, as ARS stains mineralized deposits red. Cultures were fixed with 10% neutral buffered formalin, stored at 4° C. overnight, and stained with a 2% solution of ARS in PBS. Positively stained nodules were manually counted under a microscope (Olympus IX51 with Hamamatsu 285 digital camera and Simple PCI digital imaging software; Compix, Imaging Systems, Cranberry Township, Pa.). Nodule size was measured using ImageJ software (National Institutes of Health), and photomicrographs were captured under 40 and 100 magnifications.
Multiplate wells containing calcifying VICs from 27 different tissue samples were treated with CBD of 8 different bioactivities, and 5 different mg concentrations, or left untreated. Average calcification was computed using the number of nodules per well, and the average area per nodule. Average total nodule area for untreated wells was 3.27 mm^2 (SD=0.32, min=0.5, max=4.0) per well. All reported percent reductions in calcification were computed by dividing average nodule area of treated wells from 3.27 mm^2. CBD samples were clustered according to their bioactivity levels around the values, 0.20, 0.30, 0.50, 0.60, 0.70, 0.80, 0.90, and 0.95. Mg dosages of 5, 10, 25, 40, and 100 were examined.
Culture Substrate Coatings. Tissue culture polystyrene (TCPS) plates (24-well or 96-well) were coated with type I collagen (Coll) (Inamed Biomaterials, Fremont, Calif.; […]), fibronectin (FN, 5 g/cm^2), fibrin (FB, 1.5 g/cm^2), or left untreated (TCPS). For the FB coating, plates were first incubated overnight at 4° C. in fibrinogen (1 mg/mL), followed by three washes with 0.05% Tween 20 in phosphate-buffered saline (PBS) and 1 hour incubation with thrombin (0.6 mg/mL) at 37° C. All coatings were prepared in 50 mM bicarbonate coating buffer, pH 8.5, and rinsed three times with PBS before cell seeding. The amounts of adsorbed proteins were measured on separate plates using the bicinchoninic acid protein assay (Pierce, Rockford, Ill.) to verify adsorption of protein coatings. […]

[1] = Example 4, 5 mg, CBD = 0.95 bioactivity
[2] = Example 4, 10 mg, CBD = 0.95 bioactivity
[3] = Example 4, 25 mg, CBD = 0.95 bioactivity
[4] = Example 4, 40 mg, CBD = 0.95 bioactivity
[5] = Example 4, 100 mg, CBD = 0.95 bioactivity

## C=C(C)C1CCC(C)=CC1c1c(O)cc(CCCCC)cc1O (stereo not drawn) [CBD, 2-(6-isopropenyl-3-methyl-2-cyclohexen-l-yl)-5-pentyl-1,3-benzenediol]
5 mg, bioactivity .20
  Calcification reduction, M: 5.17%
  Calcification reduction, Max: 6.9%
  Calcification reduction, Min: 3.8%
5 mg, bioactivity .30
  Calcification reduction, M: 6.16%
  Calcification reduction, Max: 7.3%
  Calcification reduction, Min: 5.2%
5 mg, bioactivity .50
  Calcification reduction, M: 7.63%
  Calcification reduction, Max: 9.1%
  Calcification reduction, Min: 5.3%
5 mg, bioactivity .60
  Calcification reduction, M: 7.99%
  Calcification reduction, Max: 10.4%
  Calcification reduction, Min: 6.2%
5 mg, bioactivity .70
  Calcification reduction, M: 10.06%
  Calcification reduction, Max: 13.6%
  Calcification reduction, Min: 7.3%
5 mg, bioactivity .80
  Calcification reduction, M: 14.32%
  Calcification reduction, Max: 16.6%
  Calcification reduction, Min: 11.3%
5 mg, bioactivity .90
  Calcification reduction, M: 18.06%
  Calcification reduction, Max: 21%
  Calcification reduction, Min: 14.6%
5 mg, bioactivity .95
  Calcification reduction, M: 19.42%
  Calcification reduction, Max: 22.1%
  Calcification reduction, Min: 15.4%
10 mg, bioactivity .20
  Calcification reduction, M: 4.95%
  Calcification reduction, Max: 6.2%
  Calcification reduction, Min: 3.7%
10 mg, bioactivity .30
  Calcification reduction, M: 6.24%
  Calcification reduction, Max: 7.5%
  Calcification reduction, Min: 4.9%
10 mg, bioactivity .50
  Calcification reduction, M: 9.77%
  Calcification reduction, Max: 11.7%
  Calcification reduction, Min: 7.7%
10 mg, bioactivity .60
  Calcification reduction, M: 11.8%
  Calcification reduction, Max: 14.3%
  Calcification reduction, Min: 9.2%
10 mg, bioactivity .70
  Calcification reduction, M: 14.33%
  Calcification reduction, Max: 17.2%
  Calcification reduction, Min: 10.2%
10 mg, bioactivity .80
  Calcification reduction, M: 20.03%
  Calcification reduction, Max: 24.6%
  Calcification reduction, Min: 15.9%
10 mg, bioactivity .90
  Calcification reduction, M: 25.04%
  Calcification reduction, Max: 30.3%
  Calcification reduction, Min: 20.5%
10 mg, bioactivity .95
  Calcification reduction, M: 25.56%
  Calcification reduction, Max: 32.5%
  Calcification reduction, Min: 18.5%
25 mg, bioactivity .20
  Calcification reduction, M: 6.07%
  Calcification reduction, Max: 7.1%
  Calcification reduction, Min: 4.8%
25 mg, bioactivity .30
  Calcification reduction, M: 6.23%
  Calcification reduction, Max: 8.1%
  Calcification reduction, Min: 4.6%
25 mg, bioactivity .50
  Calcification reduction, M: 10.89%
  Calcification reduction, Max: 12.5%
  Calcification reduction, Min: 9.5%
25 mg, bioactivity .60
  Calcification reduction, M: 13.75%
  Calcification reduction, Max: 15.3%
  Calcification reduction, Min: 10.5%
25 mg, bioactivity .70
  Calcification reduction, M: 16.55%
  Calcification reduction, Max: 18.6%
  Calcification reduction, Min: 14.3%
25 mg, bioactivity .80
  Calcification reduction, M: 24.94%
  Calcification reduction, Max: 30.3%
  Calcification reduction, Min: 20.2%
25 mg, bioactivity .90
  Calcification reduction, M: 30.51%
  Calcification reduction, Max: 35.6%
  Calcification reduction, Min: 23.5%
25 mg, bioactivity .95
  Calcification reduction, M: 32.69%
  Calcification reduction, Max: 42.6%
  Calcification reduction, Min: 26.3%
40 mg, bioactivity .20
  Calcification reduction, M: 5.19%
  Calcification reduction, Max: 6.9%
  Calcification reduction, Min: 3.6%
40 mg, bioactivity .30
  Calcification reduction, M: 7.13%
  Calcification reduction, Max: 8.1%
  Calcification reduction, Min: 5.1%
40 mg, bioactivity .50
  Calcification reduction, M: 14.2%
  Calcification reduction, Max: 17.1%
  Calcification reduction, Min: 12%
40 mg, bioactivity .60
  Calcification reduction, M: 19.23%
  Calcification reduction, Max: 21.9%
40 mg, bioactivity .70
  Calcification reduction, M: 24.7%
  Calcification reduction, Max: 33%
  Calcification reduction, Min: 18.9%
40 mg, bioactivity .80
  Calcification reduction, M: 28.54%
  Calcification reduction, Max: 34.6%
  Calcification reduction, Min: 22.4%
40 mg, bioactivity .90
  Calcification reduction, M: 40.09%
  Calcification reduction, Max: 44.6%
  Calcification reduction, Min: 33.7%
40 mg, bioactivity .95
  Calcification reduction, M: 42.98%
  Calcification reduction, Max: 54.5%
  Calcification reduction, Min: 35.8%
100 mg, bioactivity .20
  Calcification reduction, M: 6.1%
  Calcification reduction, Max: 7.5%
  Calcification reduction, Min: 5.2%
100 mg, bioactivity .30
  Calcification reduction, M: 7.2%
  Calcification reduction, Max: 8.4%
  Calcification reduction, Min: 6%
100 mg, bioactivity .50
  Calcification reduction, M: 16.1%
  Calcification reduction, Max: 18.1%
  Calcification reduction, Min: 14.1%
100 mg, bioactivity .60
  Calcification reduction, M: 21.54%
  Calcification reduction, Max: 23.7%
  Calcification reduction, Min: 18.3%
100 mg, bioactivity .70
  Calcification reduction, M: 30.71%
  Calcification reduction, Max: 35.6%
  Calcification reduction, Min: 25.8%
100 mg, bioactivity .80
  Calcification reduction, M: 37.74%
  Calcification reduction, Max: 44.4%
  Calcification reduction, Min: 31.7%
100 mg, bioactivity .90
  Calcification reduction, M: 48.52%
  Calcification reduction, Max: 54.7%
  Calcification reduction, Min: 37.6%
100 mg, bioactivity .95
  Calcification reduction, M: 55%
  Calcification reduction, Max: 66.1%
  Calcification reduction, Min: 41.9%
[1]
  Calcification reduction, M: 19.42%
  Calcification reduction, Max: 22.1%
  Calcification reduction, Min: 15.4%
[2]
  Calcification reduction, M: 25.56%
  Calcification reduction, Max: 32.5%
  Calcification reduction, Min: 18.5%
[3]
  Calcification reduction, M: 32.69%
  Calcification reduction, Max: 42.6%
  Calcification reduction, Min: 26.3%
[4]
  Calcification reduction, M: 42.98%
  Calcification reduction, Max: 54.5%
  Calcification reduction, Min: 35.8%
[5]
  Calcification reduction, M: 55%
  Calcification reduction, Max: 66.1%
  Calcification reduction, Min: 41.9%
